Assay results as given in patent US20230183248A1, “PYRROLO[1,2-D][1,2,4]TRIAZINE-2-YL-ACETAMIDES AS INHIBITORS OF THE NLRP3 INFLAMMASOME PATHWAY” (JANSSEN PHARMACEUTICA NV, priority 2020, published 2023).

Key:
[1] = system: IL-1β; experiment: PBMC assay: LPS-stimulated IL-1β release; type: cell-based; conditions: human PBMCs, 30 min compound pre-incubation, 100 ng/ml LPS for 6 hrs, supernatant, MSD
Protocol: (§1) Peripheral venous blood was collected from healthy individuals and human peripheral blood mononuclear cells (PBMCs) were isolated from blood by Ficoll-Histopaque (Sigma-Aldrich, A0561) density gradient centrifugation. After isolation, PBMCs were stored in liquid nitrogen for later use. Upon thawing, PBMC cell viability was determined in growth medium (RPMI media supplemented with 10% fetal bovine serum, 1% Pen-Strep and 1% L-glutamine). Compounds were spotted in a 1:3 serial dilution in DMSO and diluted to the final concentration in 30 µl medium in 96 well plates (Falcon, 353072). PBMCs were added at a density of 7.5 × 10^4 cells per well and incubated for 30 min in a 5% CO2 incubator at 37° C. LPS stimulation was performed by addition of 100 ng/ml LPS (final concentration, Invivogen, tlrl-smlps) for 6 hrs followed by collection of cellular supernatant and the analysis of IL-1β […] and TNF cytokines levels (µM) via MSD technology according to manufacturers’ guidelines (MSD, K151A0H).
(§2) The IC50 values (for IL-1β) and EC50 values (TNF) were obtained on compounds of the invention/examples, and are depicted in the following table: […]

[2] = system: TNF; experiment: PBMC assay: LPS-stimulated TNF cytokine levels; type: cell-based; conditions: human PBMCs, 30 min compound pre-incubation, 100 ng/ml LPS for 6 hrs, supernatant, MSD
Protocol: as §1, §2

IC50 ([1]; Homo sapiens, PBMC)	EC50 ([2]; Homo sapiens, PBMC)	IC50 [1]	EC50 [2]	SMILES
0.25 µM	> 10 µM			CC(C)c1nn(CC(=O)Nc2ccncc2F)c(=O)c2cc(I)cn12 [Compound 4F, N-(3-fluoro-4-pyridyl)-2-(7-iodo-4-isopropyl-1-oxo-pyrrolo[1,2-d][1,2,4]triazin-2-yl)acetamide]
> 10 µM	> 10 µM			CC(=O)N(C)Cc1cc2c(=O)n(CC(=O)Nc3ccncn3)nc(C(C)C)n2c1 [Compound 70F, N-((4-isopropyl-1-oxo-2-(2-oxo-2-(pyrimidin-4-ylamino)ethyl)-1,2-dihydropyrrolo[1,2-d][1,2,4]triazin-7-yl)methyl)-N-methylacetamide]
5.14 µM	> 10 µM			COC(C)c1nn(CC(=O)Nc2ccncn2)c(=O)c2cc(C(C)C)cn12 (stereo not shown) [Compound 31F, 2-[7-isopropyl-4-(1-methoxyethyl)-1-oxo-pyrrolo[1,2-d][1,2,4]triazin-2-yl]-N-pyrimidin-4-yl-acetamide]
3.62 µM	> 10 µM			CC(C)c1nn(CC(=O)Nc2ccncn2)c(=O)c2cc(CCC(F)(F)F)cn12 [Compound 33F, 2-[4-isopropyl-1-oxo-7-(3,3,3-trifluoropropyl)pyrrolo[1,2-d][1,2,4]triazin-2-yl]-N-pyrimidin-4-yl-acetamide]
2.23 µM	> 10 µM			CC(C)c1cc2c(=O)n(CC(=O)N[C@H]3C[C@@](C)(O)C3)nc(C(C)OC3CC3)n2c1 (stereo partly shown) [Compound 62F]
> 10 µM				CC(C)c1nn(CC(=O)Nc2ccncn2)c(=O)c2cc(CC3CC(=O)N(C)C3)cn12 (stereo not shown) [Compound 81F]
> 10 µM	> 10 µM			CC(C)c1nn(CC(=O)Nc2ccncn2)c(=O)c2cc(CC3CCNCC3)cn12 [Compound 82F, 2-(4-isopropyl-1-oxo-7-(piperidin-4-ylmethyl)pyrrolo[1,2-d][1,2,4]triazin-2(1H)-yl)-N-(pyrimidin-4-yl)acetamide]
1.37 µM	> 10 µM	1.88 µM		COc1nn(CC(=O)Nc2ccncn2)c(=O)c2cc(C(C)C)cn12 [Compound 53F]
1.66 µM	> 10 µM			CC(C)c1cc2c(=O)n(CC(=O)Nc3ccncn3)nc(N(C)CC3CC3)n2c1 [Compound 57F]
> 10 µM	> 10 µM			CC(C)c1nn(CC(=O)Nc2ccncn2)c(=O)c2cc(-c3cn[nH]c3)cn12 [Compound 91F]
> 10 µM	> 10 µM			CC(C)c1nn(CC(=O)Nc2ccncn2)c(=O)c2cc(Cc3ccccc3)cn12 [Compound 75F]
> 10 µM	> 10 µM			CC(C)c1nn(CC(=O)Nc2ccncn2)c(=O)c2cc(C3CNC3)cn12 [Compound 83F, 2-(7-(azetidin-3-yl)-4-isopropyl-1-oxopyrrolo[1,2-d][1,2,4]triazin-2(1H)-yl)-N-(pyrimidin-4-yl)acetamide]
1.13 µM	> 10 µM			C=Cc1cc2c(=O)n(CC(=O)Nc3ccncn3)nc(C(C)C)n2c1 [Compound 17F]
0.28 µM				CC(C)c1cc2c(=O)n(CC(=O)Nc3ccc4nncn4c3)nc(C(C)C)n2c1 [Compound 69F]
	> 10 µM			CC(C)c1cc2c(=O)n(CC(=O)N[C@@H]3CCCN(C4CCC4)C3)nc(C(C)C)n2c1 [Compound 67F]
0.14 µM	19.8 µM	0.26 µM	> 10 µM	CC(C)c1nn(CC(=O)Nc2ccc3nncn3c2)c(=O)c2cc(I)cn12 [Compound 71F]
0.35 µM	> 10 µM			CC(C)c1cc2c(=O)n(CC(=O)Nc3ccncn3)nc(C(C)C)n2c1 [Compound 19F]
1.47 µM	> 10 µM			CCCCc1nn(CC(=O)N[C@H]2C[C@@](C)(O)C2)c(=O)c2cc(C(C)C)cn12 [Compound 60F]
> 10 µM	> 10 µM			CC(C)c1nn(CC(=O)Nc2ccncn2)c(=O)c2cc(C3CCNCC3)cn12 [Compound 84F, 2-(4-isopropyl-1-oxo-7-(piperidin-4-yl)pyrrolo[1,2-d][1,2,4]triazin-2(1H)-yl)-N-(pyrimidin-4-yl)acetamide]

Continued, molecule first:

SMILES	IC50 ([1]; Homo sapiens, PBMC)	EC50 ([2]; Homo sapiens, PBMC)	IC50 [1]	EC50 [2]
CC(C)c1nn(CC(=O)Nc2ccncn2)c(=O)c2cc(C3CCC3)cn12 [Compound 30F, 2-(7-cyclobutyl-4-isopropyl-1-oxo-pyrrolo[1,2-d][1,2,4]triazin-2-yl)-N-pyrimidin-4-yl-acetamide]	0.99 µM	> 10 µM		
CC(C)c1nn(CC(=O)Nc2ccncn2)c(=O)c2cc(I)cn12 [Compound 5F, 2-(7-iodo-4-isopropyl-1-oxo-pyrrolo[1,2-d][1,2,4]triazin-2-yl)-N-pyrimidin-4-yl-acetamide]		> 10 µM		
CCc1nn(CC(=O)Nc2ccncn2)c(=O)c2cc(C3CC3)cn12 [Compound 20F]	0.59 µM	> 10 µM		
CNCc1cc2c(=O)n(CC(=O)Nc3ccncn3)nc(C(C)C)n2c1 [Compound 44F]	> 10 µM	> 10 µM		
CC(C)c1nn(CC(=O)Nc2ccncc2F)c(=O)c2cc(Br)cn12 [Compound 2F]			1.26 µM	> 10 µM
CC(C)c1cc2c(=O)n(CC(=O)Nc3ccncn3)nc(N3CCOCC3)n2c1 [Compound 25F]	> 10 µM	> 10 µM		
CC(C)c1nn(CC(=O)Nc2ccncn2)c(=O)c2cc(C(=O)N(C)C)cn12 [Compound 77F]	> 10 µM	> 10 µM		
CC(C)c1nn(CC(=O)Nc2ccncn2)c(=O)c2cc(C#N)cn12 [Compound 42F]	> 10 µM	> 10 µM		
CC(C)c1nn(CC(=O)Nc2ccncc2F)c(=O)c2cc(C(F)(F)F)cn12 [Compound 32F, N-(3-fluoro-4-pyridyl)-2-[4-isopropyl-1-oxo-7-(trifluoromethyl)pyrrolo[1,2-d][1,2,4]triazin-2-yl]acetamide]	1.5 µM	> 10 µM		
CC(C)c1nn(CC(=O)Nc2ccncn2)c(=O)c2cc(-c3ccn(C)n3)cn12 [Compound 90F]	> 10 µM	> 10 µM		
CC(C)c1nn(CC(=O)N[C@H]2C[C@@](C)(O)C2)c(=O)c2cc(I)cn12 [Compound 72F]	0.24 µM	> 10 µM		
CC(C)c1nn(CC(=O)Nc2ccncn2)c(=O)c2cc(C3CCOCC3)cn12 [Compound 79F]	> 10 µM	> 10 µM		
CC(=O)N1CC(c2nn(CC(=O)Nc3ccncn3)c(=O)c3cc(C(C)C)cn23)C1 [Compound 46F]	> 10 µM	> 10 µM		
CC(C)c1nn(CC(=O)Nc2ccncn2)c(=O)c2cc(-c3c[nH]cn3)cn12 [Compound 94F, 2-(7-(1H-imidazol-4-yl)-4-isopropyl-1-oxopyrrolo[1,2-d][1,2,4]triazin-2(1H)-yl)-N-(pyrimidin-4-yl)acetamide]	> 10 µM	> 10 µM		
COC(C)c1cc2c(=O)n(CC(=O)Nc3ccncn3)nc(C(C)C)n2c1 (stereo not shown) [Compound 88F]	7.08 µM	> 10 µM	9.06 µM	
CCCc1cc2c(=O)n(CC(=O)Nc3ccncn3)nc(OC)n2c1 [Compound 54F]	2.51 µM	> 10 µM		
CC(C)c1nn(CC(=O)Nc2ccncn2)c(=O)c2cc(CN(C)C)cn12 [Compound 43F, 2-(7-((dimethylamino)methyl)-4-isopropyl-1-oxopyrrolo[1,2-d][1,2,4]triazin-2(1H)-yl)-N-(pyrimidin-4-yl)acetamide]	> 10 µM	> 10 µM		
CC(C)c1cc2c(=O)n(CC(=O)Nc3ccncc3F)nc(C(C)C)n2c1 [Compound 18F]	0.33 µM	> 10 µM		
CC(C)c1nn(CC(=O)Nc2ccncn2)c(=O)c2cc(-c3cc[nH]n3)cn12 [Compound 92F]	> 10 µM	> 10 µM		
CC(C)c1nn(CC(=O)Nc2ccncn2)c(=O)c2cc(-c3cnn(C)c3)cn12 [Compound 89F, 2-(4-isopropyl-7-(1-methyl-1H-pyrazol-4-yl)-1-oxopyrrolo[1,2-d][1,2,4]triazin-2(1H)-yl)-N-(pyrimidin-4-yl)acetamide]	> 10 µM	> 10 µM		
COCc1cc2c(=O)n(CC(=O)Nc3ccncn3)nc(C(C)C)n2c1 [Compound 3F]	7.85 µM	> 10 µM		
CC(C)c1nn(CC(=O)Nc2ccncn2)c(=O)c2cccn12 [Compound 11F]	> 10 µM	> 10 µM		
